System: human platelet aggregation
Test: Inhibitory effect on human platelet aggregation (collagen-induced, PRP, absorbance at 660 nm)
Type: cell-based
Conditions: concentration of collagen 2 µg/ml, 37 °C, read-out: percent inhibition of platelet aggregation (%); for inhibition at 10 µM: test drug 10 µM; for inhibition at 100 µM: test drug 100 µM
Protocol: Inhibitory effect on human platelet aggregation
Using a syringe filled with 2.5 ml of sodium citrate solution (Citrate for erythrocyte sedimentation test (Kokusai) distributed by Green Cross Corporation) beforehand, human blood was collected in a total quantity of 25 ml and stirred well. The blood was then centrifuged at 200× g for 10 minutes and the supernatant was recovered as a PRP (platelet-rich plasma).
Horse tendon collagen [HORMON-CHEMIE MÜNCHEN GMBH, collagen reagent (Holm)] was previously diluted to 10 and 20 µg /ml with the accompanying buffer.
Each test drug was diluted with PBS and its concentration (mM) was estimated from ultraviolet absorption.
The assay for platelet aggregation was carried out with NKK HEMA TRACER 1 (Nikko Bioscience). The cell was filled with 0.2 ml of PRP and 0.025 ml of the test drug solution and the absorbance was measured at a constant temperature of 37 °C. Then, 0.025 ml of the above collagen solution was added and the absorbance was measured (wavelength 660 nm). The percent inhibition of platelet aggregation (%) was calculated by means of the following equation. [formula] [ ] represents the absorbance.

| SMILES | inhibition at 10 µM [%] | inhibition at 100 µM [%] |
| --- | --- | --- |
| Nc1nc2c(nc(Br)n2[C@@H]2O[C@@H]3COP(=O)(O)O[C@H]3[C@H]2O)c(=O)[nH]1 [Example 8-Br-c-GMP, 8-bromocyclic GMP] | 2.9 | 49 |
| Nc1nc2c(ncn2[C@@H]2O[C@@H]3COP(=O)(O)O[C@H]3[C@H]2O)c(=O)[nH]1 [c-GMP, cyclic GMP] | 4 | 23 |
